Experimental data taken from US8901118B2, “Compounds and methods for kinase modulation, and indications therefor” (Plexxikon Inc., priority 2010, dated 2014).

Key:
[1] = biological target: CYP2C9 (Homo sapiens, UniProt P11712); test: CYP2C9 inhibition (fluorescent substrate MFC); format: in vitro ADME; conditions: read-out: Cyp IC50 2C9
Description: (§1) CYP (Cytochrome P450) enzymes are the major drug metabolizing enzymes present in the liver. The inhibition of CYP enzyme activity (IC50) for each of CYP1A2, CYP2C19, CYP2C9, CYP2D6, CYP3A4(BFC) and CYP3A4(BQ) is determined for compounds, where inhibition of metabolism of a known substrate leads to a decrease in the fluorescence of the metabolized product. The fluorescence of the product is monitored as a function of compound concentration. Compounds are dissolved in DMSO to a concentration of 100 mM. These are diluted 1 μL into 82 μL of acetonitrile. An 11 μL aliquot of this solution is then added to 204 μL of cofactor mix (1.3% NADPH Regeneration system Solution A, 1.04% NADPH Regeneration system Solution B from BD Biosciences, 5% acetonitrile and 0.05% DMSO). These are then serially diluted 1:1 (160 μL to 160 μL co-factor mix) for a total of 10 points. A 10 μL aliquot of this final mixture is dispensed into 384 well assay plates and incubated for 10 minutes at 37° C. […] Assay plates are incubated at 37° C. (CYP1A2-15 min; CYP2C9-45 min; CYP2C19, 2D6 and 3A4-30 min) and read in a Tecan Safire 2 plate reader (CYP1A2, 2C19 and 3A4 409 ex/460 em; CYP2C9 and 2D6 409 ex/530 em). The signal versus compound concentration is used to determine the IC50. The enzymes and substrates for this assay are obtained from BD Biosciences.

[2] = biological target: T1, BCR-NTRK3 BaF3 cells (Homo sapiens, UniProt Q16288); test: BaF3 BCR-NTRK3 cell proliferation assay (ATPlite); format: cell-based; conditions: read-out: Inhibition of Cell Proliferation IC50, BCR/BaF3 TrkC
T1 construct: fused on or other part: P11274 (Breakpoint cluster region protein)
T1 sequence (Q16288 whole entry, the tested form may be a part): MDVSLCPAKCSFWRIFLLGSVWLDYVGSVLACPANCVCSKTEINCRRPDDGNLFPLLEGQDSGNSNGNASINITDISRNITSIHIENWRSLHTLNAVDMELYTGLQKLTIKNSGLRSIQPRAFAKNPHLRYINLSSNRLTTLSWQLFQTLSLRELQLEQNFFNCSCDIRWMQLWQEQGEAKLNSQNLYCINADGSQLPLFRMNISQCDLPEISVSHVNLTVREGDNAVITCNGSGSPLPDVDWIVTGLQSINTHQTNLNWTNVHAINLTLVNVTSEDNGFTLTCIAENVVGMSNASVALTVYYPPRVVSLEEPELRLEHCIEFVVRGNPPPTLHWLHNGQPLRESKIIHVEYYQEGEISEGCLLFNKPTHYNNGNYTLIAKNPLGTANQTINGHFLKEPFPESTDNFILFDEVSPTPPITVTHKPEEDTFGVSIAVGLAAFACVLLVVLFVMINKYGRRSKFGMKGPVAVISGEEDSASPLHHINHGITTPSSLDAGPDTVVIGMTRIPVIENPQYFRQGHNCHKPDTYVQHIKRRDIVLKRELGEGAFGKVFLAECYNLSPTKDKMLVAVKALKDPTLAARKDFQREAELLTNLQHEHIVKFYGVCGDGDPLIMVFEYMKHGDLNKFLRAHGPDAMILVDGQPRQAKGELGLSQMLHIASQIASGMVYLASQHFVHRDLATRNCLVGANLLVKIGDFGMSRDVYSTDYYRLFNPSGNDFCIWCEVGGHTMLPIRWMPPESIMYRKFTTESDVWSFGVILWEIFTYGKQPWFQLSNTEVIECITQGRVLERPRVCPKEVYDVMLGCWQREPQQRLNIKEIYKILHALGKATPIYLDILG
Description: Compounds are assessed in a variety of cell based assays. For example BaF3 cells engineered with any of BCR-FMS, BCR-KIT, BCR-FLT3, BCR-NTRK1, BCR-NTRK2, and BCR-NTRK3, are used in cell proliferation assays to assess inhibitory activity of Fms, Kit, Flt-3, TrkA, TrkB, and TrkC, respectively. An MV-4-11 (leukemia) cell proliferation assay is used to assess inhibitory activity in Flt-3, and SKNSH (human neuroblastoma) cell proliferation assay is used to assess efficacy of Fms/Trk inhibitors. Additional cells may be assayed similarly to assess the efficacy of Fms/Trk inhibitors, such as MiaPaCa (human pancreatic cancer) and Capan-1 (human pancreatic carcinoma) cells. Reagent and assay conditions are as follows: • BaF3 cells: • Maintained in RPMI containing 10% FBS, 1% PenStrep, 1% NEAA, and 1% L-Glutamine, supplemented with 1 mg/mL G418 and 5% WEHI-CM (or recombinant murine IL-3). • Confluent cells are split 1:50 to 1:100 every 3-4 days. • MV-4-11 cells: • Maintained in Iscove's Modified Dulbecco's Medium containing 10% FBS. • Confluent cells are split 1:4 every 3-4 days. • SKNSH cells: RPMI containing 10% FBS. On day 1, cells are counted, then centrifuged in a conical tube for 5 minutes at 1000 rpm. The supernatant is removed and cells are re-suspended as follows: • BaF3: resuspend in growth media +1 mg/mL G418 (without WEHFIL-3) to 2×10^5 cells/mL. • MV-4-11: resuspend in growth media to 5×10^5 cells/mL. • SKNSH: resuspend in growth media to 2×10^4 cells/mL. The cells are plated (50 μL, 150 μL for SKNSH cells) in each well of a 96-well dish (Corning 3610) and incubated at 37° C. in 5% CO2 overnight, cells plated to a final concentration of cells as follows: • BaF3: 10,000 cells per well. • MV-4-11: 25,000 cells per well. • SKNSH: 3,000 cells per well. On day 2, compound at a maximum concentration of 5 mM is serially diluted 1:3 for a total of 8 point titration with DMSO as a control. A 1 μL aliquot of each dilution point is added to 249 μL growth media and 50 μL is added to a well containing cells, providing 10 μM compound for the maximum concentration point. The cells are incubated for 3 days at 37° C. in 5% CO2. For SKNSH cells, a 0.75 μL aliquot of appropriate dilution in DMSO is added to 150 μL of cells. On day 5, ATPlite 1 step Luminescence Assay System (Perkin Elmer #6016739) is brought to room temperature along with the cell cultures. ATPlite is added to each well as follows: • BaF3: 25 μL per well. • MV-4-11: 40 μL per well. • SKNSH: 20 μL per well. The cells are incubated at room temperature for 10 minutes, then luminescence is read on Safire reader. The measured luminescence correlates directly with cell number, such that the reading as a function of compound concentration is used to determine the IC50 value.
It is understood that the results of these assays may vary as assay conditions are varied. Inhibition levels determined under the conditions described herein represent a relative activity for the compounds tested under the specific conditions employed. The cell based assays are likely to show variability due to the complexity of the system and the sensitivity thereof to any changes in the assay conditions. […] Results for compounds that are tested and show substantially no inhibition below the highest tested concentration are represented as “-” in the tables below. In some instances, the compounds were not tested in all of the assays, or assay results were not valid, as indicated by NA in the tables below.

[3] = biological target: CYP2D6 (Homo sapiens, UniProt P10635); test: CYP2D6 inhibition (fluorescent substrate AMMC); format: in vitro ADME; conditions: read-out: Cyp IC50 2D6
Chain of CYP2D6 (P10635 whole entry): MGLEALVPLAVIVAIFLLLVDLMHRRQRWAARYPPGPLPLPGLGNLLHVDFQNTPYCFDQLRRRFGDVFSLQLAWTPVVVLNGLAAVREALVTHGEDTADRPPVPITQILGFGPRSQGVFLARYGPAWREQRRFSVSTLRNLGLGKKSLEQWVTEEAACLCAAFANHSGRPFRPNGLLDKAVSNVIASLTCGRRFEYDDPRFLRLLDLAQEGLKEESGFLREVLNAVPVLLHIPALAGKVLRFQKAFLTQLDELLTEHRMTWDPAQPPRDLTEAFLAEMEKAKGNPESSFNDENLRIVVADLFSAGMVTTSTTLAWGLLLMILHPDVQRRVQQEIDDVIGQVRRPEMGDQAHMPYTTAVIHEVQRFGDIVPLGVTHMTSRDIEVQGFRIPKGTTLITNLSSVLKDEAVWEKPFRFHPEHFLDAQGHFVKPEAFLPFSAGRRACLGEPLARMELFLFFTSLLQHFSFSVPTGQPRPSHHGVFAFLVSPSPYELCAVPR
Description: as §1

[4] = biological target: CYP3A4(BQ) (Homo sapiens, UniProt P08684); test: CYP3A4(BQ) inhibition; format: in vitro ADME; conditions: CYP3A4, substrate BQ; read-out: Cyp IC50 3A4(BQ)
Chain of CYP3A4(BQ) (P08684 whole entry): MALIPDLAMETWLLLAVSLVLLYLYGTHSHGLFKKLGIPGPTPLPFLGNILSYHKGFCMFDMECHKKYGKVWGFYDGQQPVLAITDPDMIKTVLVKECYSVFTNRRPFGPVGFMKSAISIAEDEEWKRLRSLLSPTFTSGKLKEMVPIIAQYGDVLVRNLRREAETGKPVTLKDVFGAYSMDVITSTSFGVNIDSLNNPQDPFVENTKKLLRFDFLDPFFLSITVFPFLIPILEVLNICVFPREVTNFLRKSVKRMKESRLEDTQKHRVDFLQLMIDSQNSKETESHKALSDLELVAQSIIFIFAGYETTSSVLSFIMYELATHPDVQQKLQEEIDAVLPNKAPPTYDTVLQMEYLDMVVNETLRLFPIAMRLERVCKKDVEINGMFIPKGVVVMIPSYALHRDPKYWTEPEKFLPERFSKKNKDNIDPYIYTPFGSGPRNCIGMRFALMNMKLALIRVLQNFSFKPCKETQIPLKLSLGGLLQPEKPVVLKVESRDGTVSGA
Description: as §1

Chain of CYP2C9 (P11712 whole entry): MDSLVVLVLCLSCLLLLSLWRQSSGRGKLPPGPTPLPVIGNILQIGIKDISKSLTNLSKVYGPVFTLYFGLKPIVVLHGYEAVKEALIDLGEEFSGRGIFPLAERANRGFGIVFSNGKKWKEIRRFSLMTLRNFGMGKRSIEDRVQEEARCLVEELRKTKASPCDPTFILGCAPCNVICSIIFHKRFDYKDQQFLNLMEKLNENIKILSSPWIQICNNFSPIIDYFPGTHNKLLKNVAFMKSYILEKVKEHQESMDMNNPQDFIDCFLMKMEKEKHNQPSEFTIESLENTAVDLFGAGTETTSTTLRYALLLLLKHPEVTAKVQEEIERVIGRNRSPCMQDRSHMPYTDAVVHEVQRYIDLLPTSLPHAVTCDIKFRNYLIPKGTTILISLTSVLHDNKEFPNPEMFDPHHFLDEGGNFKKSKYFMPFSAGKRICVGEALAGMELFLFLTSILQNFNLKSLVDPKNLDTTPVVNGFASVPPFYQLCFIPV

Cc1cnc2[nH]cc(Cc3cnc(Nc4ccc(F)cc4)nc3)c2c1 [Compound P-3010, (4-Fluoro-phenyl)-[5-(5-methyl-1H-pyrrolo[2,3-b]pyridin-3-ylmethyl)-pyrimidin-2-yl]-amine]
IC50 [1]: > 10 µM | IC50 [2]: > 10 µM | IC50 [3]: > 10 µM | IC50 [4]: > 10 µM

Clc1ccc(Nc2ncc(Cc3c[nH]c4ncc(Cl)cc34)cn2)cc1 [Compound P-3011, (4-Chloro-phenyl)-[5-(5-chloro-1H-pyrrolo[2,3-b]pyridin-3-ylmethyl)-pyrimidin-2-yl]-amine]
IC50 [1]: > 10 µM | IC50 [2]: < 0.1 µM | IC50 [3]: > 10 µM | IC50 [4]: > 10 µM

Fc1ccc(Nc2ncc(Cc3c[nH]c4ncc(Cl)cc34)cn2)cc1 [Compound P-3012, [5-(5-Chloro-1H-pyrrolo[2,3-b]pyridin-3-ylmethyl)-pyrimidin-2-yl]-(4-fluoro-phenyl)-amine]
IC50 [1]: > 10 µM | IC50 [2]: < 1 µM | IC50 [3]: > 10 µM | IC50 [4]: > 10 µM

Fc1nc(NC2CCC(F)(F)CC2)ccc1Cc1c[nH]c2ncc(Cl)cc12 [Compound P-3013, [5-(5-Chloro-1H-pyrrolo[2,3-b]pyridin-3-ylmethyl)-6-fluoro-pyridin-2-yl]-(4,4-difluoro-cyclohexyl)-amine]
IC50 [1]: > 10 µM | IC50 [2]: > 10 µM | IC50 [3]: > 10 µM | IC50 [4]: > 10 µM

COc1ccc(Nc2ccc(C(=O)c3c[nH]c4ncnc(NC(C)(C)C)c34)c(F)n2)cn1 [Compound P-4055, [4-(tert-butylamino)-7H-pyrrolo[2,3-d]pyrimidin-5-yl]-[2-fluoro-6-[(6-methoxy-3-pyridyl)amino]-3-pyridyl]methanone]
IC50 [1]: > 10 µM | IC50 [2]: < 0.01 µM | IC50 [3]: > 10 µM | IC50 [4]: > 10 µM

COc1ccc(Nc2ccc(C(=O)c3c[nH]c4ncnc(NC5CCC(F)(F)CC5)c34)c(F)n2)cn1 [Compound P-4056, [4-[(4,4-difluorocyclohexyl)amino]-7H-pyrrolo[2,3-d]pyrimidin-5-yl]-[2-fluoro-6-[(6-methoxy-3-pyridyl)amino]-3-pyridyl]methanone]
IC50 [1]: > 10 µM | IC50 [2]: < 0.01 µM | IC50 [3]: > 10 µM | IC50 [4]: > 10 µM

O=C(c1ccc(NC2CCC(F)(F)CC2)nc1Cl)c1c[nH]c2ncnc(NCC(F)(F)F)c12 [Compound P-4057, [2-chloro-6-[(4,4-difluorocyclohexyl)amino]-3-pyridyl]-[4-(2,2,2-trifluoroethylamino)-7H-pyrrolo[2,3-d]pyrimidin-5-yl]methanone]
IC50 [1]: > 10 µM | IC50 [2]: < 1 µM | IC50 [3]: > 10 µM | IC50 [4]: > 10 µM

CNc1ncnc2[nH]cc(C(=O)c3ccc(NC4CCC(F)(F)CC4)nc3Cl)c12 [Compound P-4058, [2-chloro-6-[(4,4-difluorocyclohexyl)amino]-3-pyridyl]-[4-(methylamino)-7H-pyrrolo[2,3-d]pyrimidin-5-yl]methanone]
IC50 [1]: > 10 µM | IC50 [2]: < 0.1 µM | IC50 [3]: > 10 µM | IC50 [4]: > 10 µM

O=C(c1ccc(NC2CCC(F)(F)CC2)nc1Cl)c1c[nH]c2ncnc(NC3CC3)c12 [Compound P-4059, [2-chloro-6-[(4,4-difluorocyclohexyl)amino]-3-pyridyl]-[4-(cyclopropylamino)-7H-pyrrolo[2,3-d]pyrimidin-5-yl]methanone]
IC50 [1]: 5 to 10 µM | IC50 [2]: < 0.1 µM | IC50 [3]: > 10 µM | IC50 [4]: > 10 µM

CCNc1ncnc2[nH]cc(C(=O)c3ccc(Nc4ccc(C5CC5)nc4)nc3F)c12 [Compound P-4060, [6-[(6-cyclopropyl-3-pyridyl)amino]-2-fluoro-3-pyridyl]-[4-(ethylamino)-7H-pyrrolo[2,3-d]pyrimidin-5-yl]methanone]
IC50 [1]: > 10 µM | IC50 [2]: < 0.01 µM | IC50 [3]: > 10 µM | IC50 [4]: > 10 µM

O=C(c1ccc(NC2CCC(F)(F)CC2)nc1F)c1c[nH]c2ncnc(NCC(F)(F)F)c12 [Compound P-4061, [6-[(4,4-difluorocyclohexyl)amino]-2-fluoro-3-pyridyl]-[4-(2,2,2-trifluoroethylamino)-7H-pyrrolo[2,3-d]pyrimidin-5-yl]methanone]
IC50 [1]: > 10 µM | IC50 [2]: < 0.01 µM | IC50 [3]: > 10 µM | IC50 [4]: > 10 µM

O=C(c1ccc(NC2CCC(F)(F)CC2)nc1F)c1c[nH]c2ncnc(NC3CC3)c12 [Compound P-4062, [4-(cyclopropylamino)-7H-pyrrolo[2,3-d]pyrimidin-5-yl]-[6-[(4,4-difluorocyclohexyl)amino]-2-fluoro-3-pyridyl]methanone]
IC50 [1]: > 10 µM | IC50 [2]: < 0.01 µM | IC50 [3]: > 10 µM | IC50 [4]: > 10 µM

CNc1ncnc2[nH]cc(C(=O)c3ccc(NC4CCC(F)(F)CC4)nc3F)c12 [Compound P-4063, [6-[(4,4-difluorocyclohexyl)amino]-2-fluoro-3-pyridyl]-[4-(methylamino)-7H-pyrrolo[2,3-d]pyrimidin-5-yl]methanone]
IC50 [1]: > 10 µM | IC50 [2]: < 0.01 µM | IC50 [3]: > 10 µM | IC50 [4]: > 10 µM

CNc1ncnc2[nH]cc(C(=O)c3ccc(NC4CCCCC4)nc3Cl)c12 [Compound P-4110, [2-chloro-6-(cyclohexylamino)-3-pyridyl]-[4-(methylamino)-7H-pyrrolo[2,3-d]pyrimidin-5-yl]methanone]
IC50 [1]: < 5 µM | IC50 [3]: < 5 µM | IC50 [4]: > 10 µM

Cc1ccc(Nc2ccc(C(=O)c3c[nH]c4ncnc(NCC5CC5)c34)c(F)n2)cn1 [Compound P-4113, [4-(cyclopropylmethylamino)-7H-pyrrolo[2,3-d]pyrimidin-5-yl]-[2-fluoro-6-[(6-methyl-3-pyridyl)amino]-3-pyridyl]methanone]
IC50 [1]: > 10 µM | IC50 [3]: > 10 µM | IC50 [4]: > 10 µM

CCCNc1ncnc2[nH]cc(C(=O)c3ccc(Nc4ccc(C)nc4)nc3F)c12 [Compound P-4114, [2-fluoro-6-[(6-methyl-3-pyridyl)amino]-3-pyridyl]-[4-(propylamino)-7H-pyrrolo[2,3-d]pyrimidin-5-yl]methanone]
IC50 [1]: > 10 µM | IC50 [3]: > 10 µM | IC50 [4]: > 10 µM
